The values below are quoted from earlier work in patent US20070259053A1, “Inhibition of nephrotoxicity induced by Trasylol® and like agents” (priority 2006, published 2007).

Series [1] concerns gentamicin induced renal toxic effects.
For series [2], the system named is mercury induced acute renal failure. Particulars: in vivo.
For series [3], the system named is renal accumulation of lysozyme. Particulars: microinfusion experiments.
The subject of series [4] is renal accumulation of gentamicin.
In series [5] the test system is isolated renal brush border membranes. Particulars: for effect on binding of gentamicin to isolated renal brush border membranes: isolated BBM.
A further series relates to BBM. Particulars: for effect on binding of albumins of increased isoelectric points to BBM: b13: pH 6.5, pI 8.5 albumins.
Series [6] has as its system toxic effects of spermine and gentamicin.
Series [7] concerns renal toxic effects of cisplatin. Particulars: bird.
Series [8] has the same test system. To be noted: rat.
The test system of a further series is kidney. To be noted: noted by autoradiography.

Read-outs that look alike come from different tables or passages of the source.

Turning to `Clc1cccc(Cl)c1N=C1NCCN1` [Clonidine], in [1] (rat kidney), the “effect on gentamicin induced renal toxic effects” value is “inhibited”. Also, in [2], the “effect on mercury induced acute renal failure” value is recorded as “protected”.

As to `N=C(N)NCCC[C@H](N)C(=O)O` [L-arginine], the “effect on renal accumulation of lysozyme” value in series [3] is reported as “inhibited”.

`C[n+]1cccc(C(N)=O)c1` [N′-methylnicotinamide]: in series [4] (rats), the “effect on renal accumulation of gentamicin” value was “inhibited” and the “effect on urinary excretion of gentamicin” value is reported as “increased”.

As for `[Cd]` [cadmium], the “effect on gentamicin accumulation in the renal cortex” value in [4] (cadmium treated animals) was “reduced”.

Take `[Ca+2]` [calcium]: in series [5], the “effect on binding of gentamicin to isolated renal brush border membranes” value (“effect on binding of gentamicin” for short) is given as “competitive inhibitor”. For the same compound, the “effect on binding of lysozyme to BBM” value is reported as “decreased” in the series with BBM and “inhibited” in the series with BBM (listed as Ca^++). For the same compound, the “effect on binding of albumins of increased isoelectric points to BBM” value with BBM is “decreased”; in the series on BBM (listed as Ca^++), “inhibited”.

Take `N.N.[Cl][Pt][Cl]` [cisplatin]: in the series on vesicles of BBM, the “effect on transport of N′-methylnicotinamide into vesicles of BBM” value is listed as “inhibited” and the “effect on transport of tetraethylamonium (TEA) into vesicles of BBM” value is reported as “inhibited”. Besides, in the series with mouse kidney, the “effect on uptake of TEA” value is listed as “inhibited” and the “effect on uptake of p-aminohipputate” value was “inhibited”.

With `NCCCC[C@H](N)C(=O)O` [lysine], the “effect with the renal toxic effects of gentamicin” value in series [1] (given with gentamicin) is given as “additive effect”. The “effect on renal accumulation of lysozyme” value in series [3] is recorded as “inhibited”.

`Cc1ncc(COP(=O)(O)O)c(C=O)c1O` [pyridoxal 5′-phsophate, pyridoxal 5′-phosphate]: the “effect on toxic effects of gentamicin” value in series [6] (in vivo) is reported as “inhibited”. For the same compound, the “effect on toxic effects of spermine” value in series [6] (positively charged renal toxin spermine) was “inhibited”.

Consider `C=C[C@H]1C[N@@]2CC[C@H]1C[C@H]2[C@H](O)c1ccnc2ccc(OC)cc12` [quinine], for which the “effect on renal toxic effects of cisplatin” value in series [7] and in series [8] was “provided protection” throughout.

Take `NCCCNCCCCNCCCN` [spermine]: the “effect on uptake of gentamicin by renal tubular BBM” value in series [5] (renal tubular BBM) was “inhibited”. The “effect on renal accumulation of lysozyme” value in [3] is “inhibited”.

Regarding Myoglobin, the “effect on renal accumulation of lysozyme” value in [3] was “without effect”.

In the case of aprotinin, the “time after administration at which level peaked in the kidney” value in the series with kidney was 72 h. Further, the “effect on renal absorption of gentamicin” value in [4] (in vivo) is on record as “did not unambiguously inhibit”. In addition, the “effect on binding of gentamicin” value in [5] is listed as “inhibited”.

With cytochrome C, the “effect on renal accumulation of lysozyme” value in series [3] is recorded as “inhibited”.

Take polylycine: the “effect on binding of gentamicin” value in series [5] is given as “inhibited”. In addition, in series [1] (whole animal), the “effect on acute toxic effects of whole animal nephrotoxicity (gentamicin)” value is on record as “lessened”.

In the case of ribonuclease, the “effect on renal accumulation of lysozyme” value in series [3] is on record as “inhibited”.

Regarding tetralysine, in series [4] (rat renal cortex), the “effect on uptake of gentamicin in rat renal cortex” value is listed as “inhibited”.
